Results as given in the Kinase Knowledgebase extract (Sharma et al. 2016).
pIC50: −log10 of the molar value.

Legend:
PIK3CG (human) = PIK3CG (human) (UniProt P48736); assay: Inhibition of PIK3CG Kinase Activity
PIK3CB (Human) = PIK3CB (Human) (UniProt P42338); assay: Inhibition of PIK3CB Kinase Activity
PIK3CD (Human) = PIK3CD (Human) (UniProt O00329); assay: Inhibition of PIK3CD Kinase Activity
PIK3CA (human) = PIK3CA (human) (UniProt P42336); assay: Inhibition of PIK3CA Kinase Activity
Chain of PIK3CA (human) (P42336 whole entry, looked up): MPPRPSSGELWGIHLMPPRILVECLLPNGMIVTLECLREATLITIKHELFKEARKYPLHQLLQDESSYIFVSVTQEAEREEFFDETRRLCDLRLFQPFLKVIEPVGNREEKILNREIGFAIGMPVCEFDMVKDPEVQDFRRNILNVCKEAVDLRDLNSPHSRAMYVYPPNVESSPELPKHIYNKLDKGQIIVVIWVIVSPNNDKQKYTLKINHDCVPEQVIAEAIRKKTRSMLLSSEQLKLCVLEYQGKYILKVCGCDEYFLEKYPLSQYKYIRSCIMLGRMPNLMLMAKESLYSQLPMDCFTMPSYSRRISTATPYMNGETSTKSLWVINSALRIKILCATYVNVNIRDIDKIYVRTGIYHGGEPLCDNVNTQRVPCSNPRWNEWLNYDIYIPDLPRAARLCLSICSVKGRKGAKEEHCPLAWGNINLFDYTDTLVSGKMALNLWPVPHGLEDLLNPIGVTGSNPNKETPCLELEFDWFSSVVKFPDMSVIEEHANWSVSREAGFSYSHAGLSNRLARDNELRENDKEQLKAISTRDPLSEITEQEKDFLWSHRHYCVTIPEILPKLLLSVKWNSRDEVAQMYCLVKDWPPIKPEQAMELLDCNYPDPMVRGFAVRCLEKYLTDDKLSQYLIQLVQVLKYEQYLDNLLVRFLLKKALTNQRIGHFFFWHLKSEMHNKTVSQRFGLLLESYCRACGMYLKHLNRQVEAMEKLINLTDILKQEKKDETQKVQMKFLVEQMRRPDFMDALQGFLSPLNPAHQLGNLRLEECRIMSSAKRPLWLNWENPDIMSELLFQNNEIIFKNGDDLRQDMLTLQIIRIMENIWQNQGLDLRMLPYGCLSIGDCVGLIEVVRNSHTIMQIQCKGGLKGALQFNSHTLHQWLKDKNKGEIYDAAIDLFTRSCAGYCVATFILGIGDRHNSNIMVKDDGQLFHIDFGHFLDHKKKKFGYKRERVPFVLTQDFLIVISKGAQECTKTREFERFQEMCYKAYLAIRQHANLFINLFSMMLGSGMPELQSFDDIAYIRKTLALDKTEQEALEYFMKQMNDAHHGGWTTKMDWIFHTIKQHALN

Chain of PIK3CD (Human) (O00329 whole entry, looked up): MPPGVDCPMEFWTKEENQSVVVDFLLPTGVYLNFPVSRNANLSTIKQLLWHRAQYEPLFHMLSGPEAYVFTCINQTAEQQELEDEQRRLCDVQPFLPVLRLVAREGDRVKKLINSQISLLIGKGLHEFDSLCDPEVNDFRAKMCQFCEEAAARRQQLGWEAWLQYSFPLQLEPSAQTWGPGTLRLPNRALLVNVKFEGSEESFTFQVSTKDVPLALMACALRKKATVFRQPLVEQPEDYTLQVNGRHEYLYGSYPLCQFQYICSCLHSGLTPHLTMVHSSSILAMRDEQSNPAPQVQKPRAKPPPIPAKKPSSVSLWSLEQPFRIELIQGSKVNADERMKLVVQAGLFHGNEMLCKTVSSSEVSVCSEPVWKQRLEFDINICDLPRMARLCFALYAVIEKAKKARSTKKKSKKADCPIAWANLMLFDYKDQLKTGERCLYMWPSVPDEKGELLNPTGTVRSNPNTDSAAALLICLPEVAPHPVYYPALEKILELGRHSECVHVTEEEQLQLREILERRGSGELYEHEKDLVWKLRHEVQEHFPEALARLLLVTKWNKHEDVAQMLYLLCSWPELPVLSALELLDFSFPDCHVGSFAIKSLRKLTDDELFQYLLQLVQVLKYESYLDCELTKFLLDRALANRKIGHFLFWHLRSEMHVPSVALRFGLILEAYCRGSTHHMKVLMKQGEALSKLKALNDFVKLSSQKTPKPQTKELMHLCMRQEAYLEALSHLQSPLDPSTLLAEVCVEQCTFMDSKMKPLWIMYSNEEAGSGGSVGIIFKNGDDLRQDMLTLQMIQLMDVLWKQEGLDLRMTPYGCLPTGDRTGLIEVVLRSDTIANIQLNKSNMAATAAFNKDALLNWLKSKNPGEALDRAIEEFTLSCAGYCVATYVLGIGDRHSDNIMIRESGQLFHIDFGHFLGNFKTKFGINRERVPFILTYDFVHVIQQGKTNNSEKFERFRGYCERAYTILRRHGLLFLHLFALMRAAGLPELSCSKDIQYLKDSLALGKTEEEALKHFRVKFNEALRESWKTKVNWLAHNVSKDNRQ
Chain of PIK3CG (human) (P48736 whole entry, looked up): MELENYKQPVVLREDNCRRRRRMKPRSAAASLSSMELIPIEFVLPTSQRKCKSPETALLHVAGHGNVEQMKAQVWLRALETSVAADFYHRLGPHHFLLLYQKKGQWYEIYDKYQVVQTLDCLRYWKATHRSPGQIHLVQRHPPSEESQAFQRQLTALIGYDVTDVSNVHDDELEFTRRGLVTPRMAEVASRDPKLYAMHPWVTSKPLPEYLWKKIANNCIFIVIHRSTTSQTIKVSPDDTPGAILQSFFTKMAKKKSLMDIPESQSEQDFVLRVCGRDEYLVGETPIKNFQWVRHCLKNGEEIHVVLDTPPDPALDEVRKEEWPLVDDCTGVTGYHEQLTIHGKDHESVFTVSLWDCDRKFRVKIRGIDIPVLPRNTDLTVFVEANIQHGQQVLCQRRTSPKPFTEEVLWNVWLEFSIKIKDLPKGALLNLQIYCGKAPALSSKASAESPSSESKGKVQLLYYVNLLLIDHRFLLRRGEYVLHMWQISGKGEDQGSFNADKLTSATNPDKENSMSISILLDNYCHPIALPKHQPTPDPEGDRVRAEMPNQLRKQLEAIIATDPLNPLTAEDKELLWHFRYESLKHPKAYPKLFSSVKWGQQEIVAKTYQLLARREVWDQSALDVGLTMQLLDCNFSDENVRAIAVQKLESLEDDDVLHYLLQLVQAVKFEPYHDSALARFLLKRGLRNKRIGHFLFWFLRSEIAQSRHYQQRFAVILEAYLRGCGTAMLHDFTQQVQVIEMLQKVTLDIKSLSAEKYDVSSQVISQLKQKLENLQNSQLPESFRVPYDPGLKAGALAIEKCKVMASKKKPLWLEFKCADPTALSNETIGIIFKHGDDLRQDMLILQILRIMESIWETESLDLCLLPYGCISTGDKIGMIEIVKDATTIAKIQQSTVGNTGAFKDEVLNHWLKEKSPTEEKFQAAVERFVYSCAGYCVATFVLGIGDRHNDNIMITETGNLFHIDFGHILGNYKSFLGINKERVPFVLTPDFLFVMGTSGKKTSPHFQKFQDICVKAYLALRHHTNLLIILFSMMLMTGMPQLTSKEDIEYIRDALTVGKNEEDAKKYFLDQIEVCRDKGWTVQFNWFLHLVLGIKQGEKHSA
Chain of PIK3CB (Human) (P42338 whole entry, looked up): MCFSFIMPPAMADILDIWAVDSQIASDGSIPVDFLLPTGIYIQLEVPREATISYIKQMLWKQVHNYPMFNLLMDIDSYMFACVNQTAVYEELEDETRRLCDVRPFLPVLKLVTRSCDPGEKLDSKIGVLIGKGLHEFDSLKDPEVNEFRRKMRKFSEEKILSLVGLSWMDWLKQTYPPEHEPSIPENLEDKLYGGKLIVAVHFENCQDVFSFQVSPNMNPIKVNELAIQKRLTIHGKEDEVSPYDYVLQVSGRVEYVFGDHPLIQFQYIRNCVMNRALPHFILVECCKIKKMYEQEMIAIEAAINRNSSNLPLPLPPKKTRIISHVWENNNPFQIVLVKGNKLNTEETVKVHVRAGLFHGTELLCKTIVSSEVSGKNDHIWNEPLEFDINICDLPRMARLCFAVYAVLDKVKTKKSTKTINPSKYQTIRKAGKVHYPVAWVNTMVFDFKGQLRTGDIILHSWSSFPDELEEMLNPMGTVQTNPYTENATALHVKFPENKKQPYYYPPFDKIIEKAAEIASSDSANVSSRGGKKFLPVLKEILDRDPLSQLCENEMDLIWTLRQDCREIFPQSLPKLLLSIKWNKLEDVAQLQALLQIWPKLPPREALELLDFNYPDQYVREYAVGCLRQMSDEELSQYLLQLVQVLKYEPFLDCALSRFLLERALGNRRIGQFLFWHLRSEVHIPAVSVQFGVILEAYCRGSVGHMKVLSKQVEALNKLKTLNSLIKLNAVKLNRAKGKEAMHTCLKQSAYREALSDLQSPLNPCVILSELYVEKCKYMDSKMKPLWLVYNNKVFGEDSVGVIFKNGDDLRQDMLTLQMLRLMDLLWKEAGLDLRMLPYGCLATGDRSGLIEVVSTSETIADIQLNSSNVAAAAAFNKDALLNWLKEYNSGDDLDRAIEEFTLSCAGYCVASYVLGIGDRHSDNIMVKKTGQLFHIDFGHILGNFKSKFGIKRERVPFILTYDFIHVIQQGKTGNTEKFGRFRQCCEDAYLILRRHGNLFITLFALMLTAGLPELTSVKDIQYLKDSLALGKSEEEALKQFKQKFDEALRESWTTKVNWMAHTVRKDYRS

Row | Structure (SMILES) | pIC50 (PIK3CG (human)) | pIC50 (PIK3CB (Human)) | pIC50 (PIK3CD (Human)) | pIC50 (PIK3CA (human))
1 | CCCNS(=O)(=O)c1cncc(-c2ccn3nc(N)nc3c2)c1 | > 7.00 | – | – | –
2 | CCN(C)S(=O)(=O)c1cncc(-c2ccn3nc(N)nc3c2)c1 | > 7.00 | – | 6.00 to 7.00 | 6.00 to 7.00
3 | CC(C)NS(=O)(=O)c1cncc(-c2ccn3nc(N)nc3c2)c1 | > 7.00 | 6.00 to 7.00 | 6.00 to 7.00 | –
4 | Nc1nc2cc(-c3cccnc3)ccn2n1 | 6.00 to 7.00 | – | – | –
5 | CNS(=O)(=O)c1cncc(-c2ccn3nc(N)nc3c2)c1 | > 7.00 | 6.00 to 7.00 | 6.00 to 7.00 | –
6 | CC(C)(C)NS(=O)(=O)c1cncc(-c2cc(F)n3nc(N)nc3c2)c1 | > 7.00 | 6.00 to 7.00 | – | –
7 | Nc1nc2cc(-c3cncc(C(F)(F)F)c3)ccn2n1 | 6.00 to 7.00 | – | – | –
8 | CCNS(=O)(=O)c1cncc(-c2ccn3nc(N)nc3c2)c1 | > 7.00 | 6.00 to 7.00 | 6.00 to 7.00 | –
9 | COc1ccc(-c2ccn3nc(N)nc3c2)cc1OC | > 7.00 | – | 6.00 to 7.00 | 6.00 to 7.00
10 | Nc1nc2cc(-c3cncc(S(=O)(=O)NCC(F)(F)F)c3)ccn2n1 | > 7.00 | – | – | –
11 | CC(C)(NS(=O)(=O)c1cncc(-c2ccn3nc(N)nc3c2)c1)C(F)(F)F | > 7.00 | 6.00 to 7.00 | 6.00 to 7.00 | –

Second part, the compound after the results:

Row | pIC50 (PIK3CG (human)) | pIC50 (PIK3CB (Human)) | pIC50 (PIK3CD (Human)) | pIC50 (PIK3CA (human)) | Structure (SMILES)
12 | 6.00 to 7.00 | – | – | – | CS(=O)(=O)c1cccc(-c2ccn3nc(N)nc3c2)c1
13 | > 7.00 | 6.00 to 7.00 | 6.00 to 7.00 | – | CCN(CC)S(=O)(=O)c1cncc(-c2ccn3nc(N)nc3c2)c1
14 | > 7.00 | 6.00 to 7.00 | 6.00 to 7.00 | 6.00 to 7.00 | CC(C)(C)NS(=O)(=O)c1cncc(-c2ccn3nc(N)nc3c2)c1
15 | > 7.00 | – | – | – | Nc1nc2cc(-c3cncc(S(=O)(=O)NCc4ccccc4)c3)ccn2n1
16 | > 7.00 | – | – | 6.00 to 7.00 | Nc1nc2cc(-c3cncc(S(=O)(=O)Nc4ccccc4)c3)ccn2n1
17 | > 7.00 | – | – | – | CS(=O)(=O)c1cncc(-c2ccn3nc(N)nc3c2)c1
18 | > 7.00 | 6.00 to 7.00 | 6.00 to 7.00 | – | Nc1nc2cc(-c3cncc(S(N)(=O)=O)c3)ccn2n1
19 | > 7.00 | – | – | – | Nc1nc2cc(-c3cncc(S(=O)(=O)N4CCC4)c3)ccn2n1
20 | > 7.00 | 6.00 to 7.00 | 6.00 to 7.00 | – | Nc1nc2cc(-c3cncc(S(=O)(=O)NC4CC4)c3)ccn2n1
21 | 6.00 to 7.00 | – | – | – | CCCCNS(=O)(=O)c1cccc(-c2ccn3nc(N)nc3c2)c1
